Columns and labels:
Format in all cases: in vivo
Parameters in all cases: key: 0 is no effect; 10 is complete control
[1] = test system: cocklebur (Xanthium strumarium); assay: Test B pre-/postemergence; conditions: for Plant response rating, Cocklebur: Postemergence
Text: (§1) Seeds of bedstraw (Galium aparine), blackgrass (Alopecurus myosuroides), broadleaf signalgrass (Brachiaria decumbens), cocklebur (Xanthium strumarium), corn (Zea mays), crabgrass (Digitaria sanguinalis), giant foxtail (Setaria faberii), lambsquarters (Chenopodium album), momingglory (Ipomoea hederacea), pigweed (Amaranthus retroflexus), rape (Brassica napus), soybean (Glycine max), sugar beet (Beta vulgaris), velvetleaf (Abutilon theophrasti), wheat (Triticum aestivum), wild oat (Avena fatua) and purple nutsedge (Cyperus rotundus) tubers were planted and treated preemergence with test chemicals formulated in a non-phytotoxic solvent mixture which included a surfactant.
(§2) At the same time, these crop and weed species were also treated with postemergence applications of test chemicals formulated in the same manner. Plants ranged in height from 2 to 18 cm (1- to 4-leaf stage) for postemergence treatments. Plant species in the flood test consisted of rice (Oryza sativa), smallflower flatsedge (Cyperus difformis), duck salad (Heteranthera limosa) and bamyardgrass (Echinochloa crus-galli) grown to the 2-leaf stage for testing. Treated plants and controls were maintained in a greenhouse for twelve to sixteen days, after which all species were compared to controls and visually evaluated. Plant response ratings, summarized in Table B, are based on a scale of 0 to 10 where 0 is no effect and 10 is complete control. A dash (−) response means no test result.

[2] = test system: broadleaf signalgrass (Brachiaria decumbens); assay: Test B pre-/postemergence; conditions: for B. signalgrass plant response rating: Preemergence
Text: as §1, §2

rape (Brassica napus) = assay: Test B pre-/postemergence
Text: as §1, §2

corn (Zea mays) = assay: Test B pre-/postemergence; conditions: for Corn plant response rating: Preemergence
Text: as §1, §2

[3] = test system: velvetleaf (Abutilon theophrasti); assay: Test B pre-/postemergence
Text: as §1, §2

[4] = test system: wheat (Triticum aestivum); assay: Test B pre-/postemergence
Text: as §1, §2

[5] = test system: crabgrass (Digitaria sanguinalis); assay: Test B pre-/postemergence; conditions: for Crabgrass plant response rating: Preemergence
Text: as §1, §2

[6] = test system: giant foxtail (Setaria faberii); assay: Test B pre-/postemergence
Text: as §1, §2

[7] = test system: sugar beet (Beta vulgaris); assay: Test B pre-/postemergence
Text: as §1, §2

[8] = test system: momingglory (Ipomoea hederacea); assay: Test B pre-/postemergence
Text: as §1, §2

[9] = test system: bedstraw (Galium aparine); assay: Test B pre-/postemergence; conditions: for Plant response rating, Bedstraw: Postemergence; for Bedstraw plant response rating: Preemergence
Text: as §1, §2

[10] = test system: pigweed (Amaranthus retroflexus); assay: Test B pre-/postemergence
Text: as §1, §2

wild oat (Avena fatua) = assay: Test B pre-/postemergence
Text: as §1, §2

[11] = test system: blackgrass (Alopecurus myosuroides); assay: Test B pre-/postemergence; conditions: for Blackgrass plant response rating: Preemergence
Text: as §1, §2

soybean (Glycine max) = assay: Test B pre-/postemergence
Text: as §1, §2

[12] = test system: purple nutsedge (Cyperus rotundus); assay: Test B pre-/postemergence; conditions: for Nutsedge plant response rating: Preemergence
Text: as §1, §2

[13] = test system: duck salad (Heteranthera limosa); assay: Test B flood test
How it was run: (§3)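 Read-out is a visual response score from 0 (no effect) to 10 (complete control), assigned by comparison with untreated controls. Treatment was applied at the 2-leaf stage, and plants stayed in the greenhouse for twelve to sixteen days before scoring.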

rice (Oryza sativa) = assay: Test B flood test
How it was run: as §3

[14] = test system: bamyardgrass (Echinochloa crus-galli); assay: Test B flood test
How it was run: as §3

[15] = test system: smallflower flatsedge (Cyperus difformis); assay: Test B flood test
How it was run: as §3

[16] = Rate 250 g/ha, Postemergence (so in the source)
[17] = Rate 62 g/ha, Postemergence (flood test)
[18] = Rate 125 g/ha, Postemergence, flood test
[19] = Rate 250 g/ha, Postemergence (flood test species)
[20] = Rate 125 g/ha, Postemergence section (flood test species)

SMILES: Cc1cnc(-c2ccc(Cl)c(Cl)c2)nc1Cc1cccc(C(F)(F)F)c1 [Compound 27]
- Plant response rating, Cocklebur ([1]; Rate 62 g/ha): 7
- Cocklebur plant response rating ([1]; Rate 62 g/ha, Preemergence): 0
- Plant response rating, Cocklebur ([1]; Rate 125 g/ha): 7
- Plant response rating, Cocklebur ([1]; Rate 250 g/ha): 9
- Plant response rating, B. signalgrass ([2]; Rate 62 g/ha, Postemergence): 3
- B. signalgrass plant response rating ([2]; Rate 62 g/ha): 0
- Plant response rating, B. signalgrass ([2]; Rate 125 g/ha, Postemergence): 5
- B. signalgrass plant response rating ([2]; Rate 125 g/ha): 1
- Plant response rating, B. signalgrass ([2]; Rate 250 g/ha, Postemergence): 5
- Plant response rating, B. signalgrass ([2]; Rate 250 g/ha, Postemergence as printed in head r139 (second section for compounds 26-50)): 3
- Plant response rating, Rape (rape (Brassica napus); Rate 62 g/ha, Postemergence): 8
- Rape plant response rating (rape (Brassica napus); Rate 62 g/ha, Preemergence): 1
- Rape plant response rating (rape (Brassica napus); Rate 125 g/ha, Postemergence): 8
- Rape plant response rating (rape (Brassica napus); Rate 125 g/ha, Preemergence): 2
- Plant response rating, Rape (rape (Brassica napus); Rate 250 g/ha, Postemergence): 9
- Plant response rating, Rape (rape (Brassica napus); [16]): 3
- Plant response rating, Corn (corn (Zea mays); Rate 62 g/ha, Postemergence): 2
- Corn plant response rating (corn (Zea mays); Rate 62 g/ha): 0
- Plant response rating, Corn (corn (Zea mays); Rate 125 g/ha, Postemergence): 3
- Corn plant response rating (corn (Zea mays); Rate 125 g/ha): 0
- Plant response rating, Corn (corn (Zea mays); Rate 250 g/ha, Postemergence): 3
- Plant response rating, Corn (corn (Zea mays); [16]): 0
- Plant response rating, Velvetleaf ([3]; Rate 62 g/ha, Postemergence): 5
- Velvetleaf plant response rating ([3]; Rate 62 g/ha, Preemergence): 0
- Velvetleaf plant response rating ([3]; Rate 125 g/ha, Postemergence): 7
- Plant response rating, Velvetleaf ([3]; Rate 125 g/ha, Preemergence): 0
- Plant response rating, Velvetleaf ([3]; Rate 250 g/ha, Postemergence): 7
- Plant response rating, Velvetleaf [3, 16]: 1
- Plant response rating, Wheat ([4]; Rate 62 g/ha, Postemergence): 3
- Wheat plant response rating ([4]; Rate 62 g/ha, Preemergence): 0
- Wheat plant response rating ([4]; Rate 125 g/ha, Postemergence): 4
- Plant response rating, Wheat ([4]; Rate 125 g/ha, Preemergence): 0
- Plant response rating, Wheat ([4]; Rate 250 g/ha, Postemergence): 4
- Plant response rating, Wheat [4, 16]: 1
- Plant response rating, Crabgrass ([5]; Rate 62 g/ha, Postemergence): 3
- Crabgrass plant response rating ([5]; Rate 62 g/ha): 1
- Plant response rating, Crabgrass ([5]; Rate 125 g/ha, Postemergence): 4
- Crabgrass plant response rating ([5]; Rate 125 g/ha): 2
- Plant response rating, Crabgrass ([5]; Rate 250 g/ha, Postemergence): 6
- Plant response rating, Crabgrass [5, 16]: 5
- Plant response rating, Giant foxtail ([6]; Rate 62 g/ha, Postemergence): 3
- Giant foxtail plant response rating ([6]; Rate 62 g/ha, Preemergence): 2
- Giant foxtail plant response rating ([6]; Rate 125 g/ha, Postemergence): 4
- Giant foxtail plant response rating ([6]; Rate 125 g/ha, Preemergence): 5
- Plant response rating, Giant foxtail ([6]; Rate 250 g/ha, Postemergence): 4
- Plant response rating, Giant foxtail [6, 16]: 9
- Plant response rating, Sugarbeets ([7]; Rate 62 g/ha, Postemergence): 9
- Sugarbeets plant response rating ([7]; Rate 62 g/ha, Preemergence): 0
- Sugarbeets plant response rating ([7]; Rate 125 g/ha, Postemergence): 9
- Plant response rating, Sugarbeets ([7]; Rate 125 g/ha, Preemergence): 1
- Plant response rating, Sugarbeets ([7]; Rate 250 g/ha, Postemergence): 10
- Plant response rating, Sugarbeets [7, 16]: 8
- Plant response rating, Morningglory ([8]; Rate 62 g/ha, Postemergence): 5
- Morningglory plant response rating ([8]; Rate 62 g/ha, Preemergence): 1
- Morningglory plant response rating ([8]; Rate 125 g/ha, Postemergence): 8
- Morningglory plant response rating ([8]; Rate 125 g/ha, Preemergence): 2
- Plant response rating, Morningglory ([8]; Rate 250 g/ha, Postemergence): 8
- Plant response rating, Morningglory [8, 16]: 2
- Plant response rating, Bedstraw ([9]; Rate 62 g/ha): 8
- Bedstraw plant response rating ([9]; Rate 62 g/ha): 0
- Plant response rating, Bedstraw ([9]; Rate 125 g/ha): 9
- Bedstraw plant response rating ([9]; Rate 125 g/ha): 0
- Plant response rating, Bedstraw ([9]; Rate 250 g/ha): 9
- Plant response rating, Redroot pigweed ([10]; Rate 62 g/ha, Postemergence): 7
- Redroot pigweed plant response rating ([10]; Rate 62 g/ha, Preemergence): 2
- Redroot pigweed plant response rating ([10]; Rate 125 g/ha, Postemergence): 9
- Redroot pigweed plant response rating ([10]; Rate 125 g/ha, Preemergence): 6
- Plant response rating, Redroot pigweed ([10]; Rate 250 g/ha, Postemergence): 10
- Plant response rating, Redroot pigweed [10, 16]: 7
- Plant response rating, Wild oats (wild oat (Avena fatua); Rate 62 g/ha, Postemergence): 3
- Wild oats plant response rating (wild oat (Avena fatua); Rate 62 g/ha, Preemergence): 0
- Wild oats plant response rating (wild oat (Avena fatua); Rate 125 g/ha, Postemergence): 4
- Plant response rating, Wild oats (wild oat (Avena fatua); Rate 125 g/ha, Preemergence): 1
- Plant response rating, Wild oats (wild oat (Avena fatua); Rate 250 g/ha, Postemergence): 5
- Plant response rating, Wild oats (wild oat (Avena fatua); [16]): 3
- Plant response rating, Blackgrass ([11]; Rate 62 g/ha, Postemergence): 4
- Blackgrass plant response rating ([11]; Rate 62 g/ha): 0
- Plant response rating, Blackgrass ([11]; Rate 125 g/ha, Postemergence): 4
- Blackgrass plant response rating ([11]; Rate 125 g/ha): 2
- Plant response rating, Blackgrass ([11]; Rate 250 g/ha, Postemergence): 5
- Plant response rating, Blackgrass [11, 16]: 4
- Plant response rating, Soybean (soybean (Glycine max); Rate 62 g/ha, Postemergence): 5
- Soybean plant response rating (soybean (Glycine max); Rate 62 g/ha, Preemergence): 0
- Soybean plant response rating (soybean (Glycine max); Rate 125 g/ha, Postemergence): 5
- Plant response rating, Soybean (soybean (Glycine max); Rate 125 g/ha, Preemergence): 0
- Plant response rating, Soybean (soybean (Glycine max); Rate 250 g/ha, Postemergence): 7
- Plant response rating, Soybean (soybean (Glycine max); [16]): 0
- Plant response rating, Nutsedge ([12]; Rate 62 g/ha, Postemergence): 2
- Nutsedge plant response rating ([12]; Rate 62 g/ha): 0
- Nutsedge plant response rating ([12]; Rate 125 g/ha): 0
- Plant response rating, Nutsedge [12, 16]: 0
- Plant response rating, Ducksalad [13, 17]: 0
- Plant response rating, Ducksalad [13, 18]: 1
- Plant response rating, Ducksalad [13, 19]: 2
- Plant response rating, Rice (rice (Oryza sativa); [17]): 0
- Rice plant response rating (rice (Oryza sativa); [20]): 1
- Plant response rating, Rice (rice (Oryza sativa); [19]): 1
- Plant response rating, Barnyardgrass [14, 17]: 1
- Plant response rating, Barnyardgrass [14, 18]: 2
- Plant response rating, Barnyardgrass [14, 19]: 3
- Plant response rating, S. Flatsedge [15, 17]: 5
- S. Flatsedge plant response rating [15, 20]: 5
- Plant response rating, S. Flatsedge [15, 19]: 5

— patent publication US6525001B1, “Substituted pyrimidine and pyridine herbicides” (Mid-American Commercialization Corporation, priority 1997, dated 2003)
